Reference: ChEMBL document CHEMBL4483862, “Open-source discovery of chemical leads for next-generation chemoprotective antimalarials” (2018)

Test system: Plasmodium berghei
Assay: Luciferase/luciferin-expressing antifolate-resistant parasites were used to infect a culture of HepG2 cells that were pre-incubated with compounds. Infected hepatocytes emit light due to the luciferase reaction. Assay results are presented as the percent inhibition of light emission compared to control. […]
Type: functional
Conditions: sporozoite; for IC90: read-out: LUCIFERASE INFECTION ASSAY - IC90

SMILES | IC90 | further results
CC(=O)c1ccc(-c2ccc(C(=O)Nc3nc(-c4ccccn4)cs3)o2)cc1 | 7.29 µM | IC50 (HEPG2TOX_HILL_SLOPE 2.67, HEPG2TOX_R_SQUARED 0.908, PBLUC_HILL_SLOPE 30.3, PBLUC_R_SQUARED 0.327, read-out: LUCIFERASE INFECTION ASSAY - IC50): 6.78 µM
COc1cc(-c2cnc3cnc(-c4ccc(N)nc4)cn23)ccc1O | 4.1 µM | IC50 (HEPG2TOX_HILL_SLOPE 2.67, HEPG2TOX_R_SQUARED 0.695, PBLUC_HILL_SLOPE 3.91, PBLUC_R_SQUARED 0.793, read-out: LUCIFERASE INFECTION ASSAY - IC50): 2.33 µM
COc1cc(-c2cn3c(-c4ccc5ncccc5c4)cnc3cn2)cc(OC)c1OC | 7.92 µM | IC50 (HEPG2TOX_HILL_SLOPE 2.69, HEPG2TOX_R_SQUARED 0.906, PBLUC_HILL_SLOPE 2.74, PBLUC_R_SQUARED 0.535, read-out: LUCIFERASE INFECTION ASSAY - IC50): 3.55 µM
O=C(/C(=N/Nc1ccc([N+](=O)[O-])cc1)C(=O)C(F)(F)F)c1cccs1 | 1 µM | IC50 (HEPG2TOX_HILL_SLOPE 2.64, HEPG2TOX_R_SQUARED 0.853, PBLUC_HILL_SLOPE 14.9, PBLUC_R_SQUARED 0.662, read-out: LUCIFERASE INFECTION ASSAY - IC50): 0.866 µM
Cc1nc(-c2ccc(C(C)Nc3cnn(-c4ccccc4)c(=O)c3Cl)cc2)cs1 (stereo not given) | 5.07 µM | IC50 (HEPG2TOX_HILL_SLOPE 2.7, HEPG2TOX_R_SQUARED 0.839, PBLUC_HILL_SLOPE 8.17, PBLUC_R_SQUARED 0.802, read-out: LUCIFERASE INFECTION ASSAY - IC50): 3.88 µM
COc1ccc(-c2cnc3cnc(-c4cccc(F)c4)cn23)cc1 | 7.12 µM | IC50 (HEPG2TOX_HILL_SLOPE 2.64, HEPG2TOX_R_SQUARED 0.99, PBLUC_HILL_SLOPE 1.99, PBLUC_R_SQUARED 0.779, read-out: LUCIFERASE INFECTION ASSAY - IC50): 2.36 µM
CCNC(=O)NC(=O)C(Sc1nncn1-c1ccccc1OC)c1ccccc1 (stereo not given) | 9.43 µM | IC50 (HEPG2TOX_HILL_SLOPE 2.69, HEPG2TOX_R_SQUARED 0.767, PBLUC_HILL_SLOPE 3.33, PBLUC_R_SQUARED 0.658, read-out: LUCIFERASE INFECTION ASSAY - IC50): 4.87 µM
Cc1ccc2nc(NC(=O)c3cc(F)ccc3C)c(C(=O)NCC(C)C)n2c1 | 3.84 µM | IC50 (HEPG2TOX_HILL_SLOPE 2.69, HEPG2TOX_R_SQUARED 0.883, PBLUC_HILL_SLOPE 9.75, PBLUC_R_SQUARED 0.136, read-out: LUCIFERASE INFECTION ASSAY - IC50): 3.07 µM
NC(=O)c1ccc(-c2ccnc3n[nH]c(-c4cccc(F)c4)c23)cc1 | 3.73 µM | IC50 (HEPG2TOX_HILL_SLOPE 2.67, HEPG2TOX_R_SQUARED 0.872, PBLUC_HILL_SLOPE 9.91, PBLUC_R_SQUARED 0.595, read-out: LUCIFERASE INFECTION ASSAY - IC50): 2.99 µM
COc1ccc(C(C)C)cc1-c1cnc(N)c(-c2ccc(O)cc2)c1 | 3.69 µM | IC50 (HEPG2TOX_HILL_SLOPE 2.7, HEPG2TOX_R_SQUARED 0.932, PBLUC_HILL_SLOPE 18.7, PBLUC_R_SQUARED 0.395, read-out: LUCIFERASE INFECTION ASSAY - IC50): 3.28 µM
O=C(NNC(=S)Nc1cccc(C(F)(F)F)c1)c1[nH]c2ccccc2c1-c1ccccc1 | 2.73 µM | IC50 (HEPG2TOX_HILL_SLOPE 2.69, HEPG2TOX_R_SQUARED 0.963, PBLUC_HILL_SLOPE 11.7, PBLUC_R_SQUARED 0.673, read-out: LUCIFERASE INFECTION ASSAY - IC50): 2.27 µM
Cc1nc(SCc2cccc(S(=O)(=O)N(C)C)c2)c2ccccc2n1 | > 10 µM | IC50 (HEPG2TOX_HILL_SLOPE 2.7, HEPG2TOX_R_SQUARED 0.556, read-out: LUCIFERASE INFECTION ASSAY - IC50): > 10 µM
C[C@H]1O[C@@H](O[C@H]2[C@@H](O)C[C@H](O[C@H]3[C@@H](O)C[C@H](O[C@H]4CC[C@]5(C)C6CC[C@]7(C)[C@@H](C8=CC(=O)OC8)CC[C@]7(O)C6CC[C@@H]5C4)O[C@@H]3C)O[C@@H]2C)C[C@H](O)[C@H]1O (stereo not given in full) | 3.31 µM | IC50 (HEPG2TOX_HILL_SLOPE 2.7, HEPG2TOX_R_SQUARED 0.866, PBLUC_HILL_SLOPE 1.79, PBLUC_R_SQUARED 0.476, read-out: LUCIFERASE INFECTION ASSAY - IC50): 0.969 µM
Cc1ccc(N2CC(C(=O)Nc3cc(C4CC4)n[nH]3)CC2=O)cc1 (stereo not given) | 2.23 µM | IC50 (HEPG2TOX_HILL_SLOPE 2.65, HEPG2TOX_R_SQUARED 0.943, PBLUC_HILL_SLOPE 2.62, PBLUC_R_SQUARED 0.892, read-out: LUCIFERASE INFECTION ASSAY - IC50): 0.963 µM
COc1cc2c(cc1OC)CN(CCNc1ncnc3sccc13)CC2 | > 10 µM | IC50 (HEPG2TOX_HILL_SLOPE 2.69, HEPG2TOX_R_SQUARED 0.552, PBLUC_HILL_SLOPE 1.83, PBLUC_R_SQUARED 0.419, read-out: LUCIFERASE INFECTION ASSAY - IC50): 3.93 µM
CCCN(CCC)c1ccc(/C=C2\C=c3c(O)cccc3=C2O)cc1 | 3.37 µM | IC50 (HEPG2TOX_HILL_SLOPE 2.7, HEPG2TOX_R_SQUARED 0.839, PBLUC_HILL_SLOPE 2.95, PBLUC_R_SQUARED 0.682, read-out: LUCIFERASE INFECTION ASSAY - IC50): 1.6 µM
Clc1cccc(-c2ccnc3n[nH]c(-c4cccnc4)c23)c1 | 4.14 µM | IC50 (HEPG2TOX_HILL_SLOPE 2.64, HEPG2TOX_R_SQUARED 0.942, PBLUC_HILL_SLOPE 10.9, PBLUC_R_SQUARED 0.513, read-out: LUCIFERASE INFECTION ASSAY - IC50): 3.39 µM
CO/N=C(/CS(=O)(=O)c1ccc(OC)cc1)c1ccc(Cl)cc1 | > 9.33 µM | IC50 (HEPG2TOX_HILL_SLOPE 2.67, HEPG2TOX_R_SQUARED 0.896, PBLUC_HILL_SLOPE 4.33, PBLUC_R_SQUARED 0.342, read-out: LUCIFERASE INFECTION ASSAY - IC50): 6.46 µM
CC(=O)OC1CCC2(C)C3CCC4(C)C(C5=CC(=O)OC5)CCC4(O)C3CCC2(O)C1 (stereo not given) | > 7.63 µM | IC50 (HEPG2TOX_HILL_SLOPE 2.67, HEPG2TOX_R_SQUARED 0.733, PBLUC_HILL_SLOPE 2.15, PBLUC_R_SQUARED 0.208, read-out: LUCIFERASE INFECTION ASSAY - IC50): 3 µM
CC(=O)c1cccc(-c2cnc3c(Nc4cccc(OC(F)(F)C(F)F)c4)nccn23)c1 | 6 µM | IC50 (HEPG2TOX_HILL_SLOPE 2.66, HEPG2TOX_R_SQUARED 0.947, PBLUC_HILL_SLOPE 1.76, PBLUC_R_SQUARED 0.616, read-out: LUCIFERASE INFECTION ASSAY - IC50): 1.72 µM
CCOC(=O)/C=C/c1ccc(NC(=O)C2CCCN2c2ncnc3ccccc23)cc1 (stereo not given) | > 10 µM | IC50 (HEPG2TOX_HILL_SLOPE 2.7, HEPG2TOX_R_SQUARED 0.523, PBLUC_HILL_SLOPE 3.32, PBLUC_R_SQUARED 0.679, read-out: LUCIFERASE INFECTION ASSAY - IC50): 6.13 µM
COc1cc(C(=O)Nc2ccc(-c3csc(N4CCOCC4)n3)cc2)cc(Cl)c1OC | > 10 µM | IC50 (HEPG2TOX_HILL_SLOPE 2.64, HEPG2TOX_R_SQUARED 0.944, PBLUC_HILL_SLOPE 1.81, PBLUC_R_SQUARED 0.542, read-out: LUCIFERASE INFECTION ASSAY - IC50): 3.98 µM
O=C(c1c(-c2ccccc2)c2c3n(c(CN(C(=O)C4CC4)c4ccccc4)nn13)CCCC2)C1CC1 | > 10 µM | IC50 (HEPG2TOX_HILL_SLOPE 2.64, HEPG2TOX_R_SQUARED 0.879, read-out: LUCIFERASE INFECTION ASSAY - IC50): > 10 µM
Cc1ccccc1N1CCN(Cc2csc(-c3ccccc3Cl)n2)CC1 | 3.67 µM | IC50 (HEPG2TOX_HILL_SLOPE 2.7, HEPG2TOX_R_SQUARED 0.815, PBLUC_HILL_SLOPE 21.2, PBLUC_R_SQUARED 0.497, read-out: LUCIFERASE INFECTION ASSAY - IC50): 3.3 µM
COc1ccc(/C=C2\C(=O)/C(=C/c3ccc(OC)c(O)c3)c3ccccc32)cc1O | 3.46 µM | IC50 (HEPG2TOX_HILL_SLOPE 2.67, HEPG2TOX_R_SQUARED 0.974, PBLUC_HILL_SLOPE 3.5, PBLUC_R_SQUARED 0.766, read-out: LUCIFERASE INFECTION ASSAY - IC50): 1.85 µM
COc1ccccc1-c1ccnc2n[nH]c(-c3cc(OC)c(OC)c(OC)c3)c12 | 3.93 µM | IC50 (HEPG2TOX_HILL_SLOPE 2.69, HEPG2TOX_R_SQUARED 0.93, PBLUC_HILL_SLOPE 7.13, PBLUC_R_SQUARED 0.294, read-out: LUCIFERASE INFECTION ASSAY - IC50): 2.89 µM
CC(C)c1ccc(C(Nc2ccc3nnnn3n2)c2cccs2)cc1 (stereo not given) | 5.57 µM | IC50 (HEPG2TOX_HILL_SLOPE 2.7, HEPG2TOX_R_SQUARED 0.805, PBLUC_HILL_SLOPE 2.3, PBLUC_R_SQUARED 0.604, read-out: LUCIFERASE INFECTION ASSAY - IC50): 2.14 µM
CC(=O)Nc1cccc(Nc2cc3c(cn2)ncn3CC2CC2)c1 | > 10 µM | IC50 (HEPG2TOX_HILL_SLOPE 2.64, HEPG2TOX_R_SQUARED 0.966, PBLUC_HILL_SLOPE 2.21, PBLUC_R_SQUARED 0.507, read-out: LUCIFERASE INFECTION ASSAY - IC50): 6.65 µM
FC(F)Oc1ccc(NC(=S)NNC(=S)Nc2ccc(Cl)cc2)cc1 | 4.51 µM | IC50 (HEPG2TOX_HILL_SLOPE 2.66, HEPG2TOX_R_SQUARED 0.926, PBLUC_HILL_SLOPE 1.61, PBLUC_R_SQUARED 0.703, read-out: LUCIFERASE INFECTION ASSAY - IC50): 1.16 µM
COc1ccc(-c2cnc3ccc(NCc4ccc(S(N)(=O)=O)cc4)nn23)cn1 | > 8.04 µM | IC50 (HEPG2TOX_HILL_SLOPE 2.67, HEPG2TOX_R_SQUARED 0.289, PBLUC_HILL_SLOPE 3.8, PBLUC_R_SQUARED 0.626, read-out: LUCIFERASE INFECTION ASSAY - IC50): 4.71 µM
